Among the data in patent US9630977B2, “Cephalosporin derivatives and pharmaceutical compositions thereof” (Legochem Biosciences, Inc., priority 2011, dated 2017) are MIC90 values, retold here.

Common to all, as to experiment: In vitro antibacterial activity test (broth microdilution)
What all share (assay type): cell-based
Background: Dilution methods test growth across graded concentrations, often in twofold steps.

The test system of assay [1] is A. calcoaceticus ATCC15473. As to conditions: Acinetobacter calcoaceticus, ATCC15473, A. calcoaceticus ATCC15473. Put shortly: (§1)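 MIC90 (ug/mL) reported. CLSI microdilution in broth, clinical strains, 0.0626–128 ug/mL final compound, 2.5% v/v DMSO co-solvent.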
In another assay the test system is M. catarrhalis 2524. As to conditions: Moraxella catarrhalis, 2524. An outline of the steps: as §1
The test system of the next assay is A. baumannii 46. As to conditions: Acinetobacter baumannii, 46, A. baumannii 46. An outline of the steps:
as §1

The test system of a further assay is P. aeruginosa 6065Y. As to conditions: Pseudomonas aeruginosa, 6065Y. An outline of the steps: as §1
Another assay deals with K. pneumoniae β13. As to conditions: Klebsiella pneumoniae. Put shortly:
as §1

A further assay concerns E. cloacae β19. As to conditions: Enterobacter cloacae. An outline of the steps: as §1
The subject of the next assay is P. aeruginosa 40. As to conditions: Pseudomonas aeruginosa, 40. An outline of the steps: as §1
The test system of a further assay is A. baumannii 52. As to conditions: Acinetobacter baumannii, 52. An outline of the steps:
as §1

Another assay deals with K. pneumoniae 2011E. As to conditions: Klebsiella pneumoniae, 2011E. Put shortly:
as §1

A further assay relates to E. coli AG100. As to conditions: Escherichia coli, AG100. An outline of the steps: as §1
Another assay has as its system K. pneumoniae β9. As to conditions: Klebsiella pneumoniae. Put shortly: as §1
Another assay relates to A. baumannii 49. As to conditions: Acinetobacter baumannii, 49, A. baumannii 49. Put shortly:
as §1

The subject of the next assay is E. coli β4. As to conditions: Escherichia coli. Put shortly:
as §1

Another assay has as its system K. pneumoniae β11. As to conditions: Klebsiella pneumoniae. Put shortly:
as §1

A further assay has as its system P. aeruginosa 37. As to conditions: Pseudomonas aeruginosa, 37, P. aeruginosa 37. An outline of the steps:
as §1

The test system of the next assay is P. aeruginosa 1912E. As to conditions: Pseudomonas aeruginosa, 1912E. An outline of the steps:
as §1

The next assay concerns K. pneumoniae β14. As to conditions: Klebsiella pneumoniae. An outline of the steps: as §1
The subject of another assay is P. aeruginosa 43. As to conditions: Pseudomonas aeruginosa, 43. Put shortly: as §1
In the next assay the test system is K. pneumoniae β10. As to conditions: Klebsiella pneumoniae. An outline of the steps: as §1

In brackets after ≈: the same amount, converted by molar mass.

As a reminder, the MIC90 is an inhibitory concentration at the 90% level, which refers to growth in some studies and to a panel of isolates in others. Regarding `CC(C)(O/N=C(\C(=O)N[C@@H]1C(=O)N2C(C(=O)[O-])=C(/C=C/C[n+]3cnc(N)c(NC(=O)CCN)c3)CSC12)c1nsc(N)n1)C(=O)O` (stereo partly shown) [Compound 61], the MIC90 in [1] is 1 µg/mL (≈ 1.48 µM); against M. catarrhalis 2524, below 0.0625 µg/mL; with A. baumannii 46, 128 µg/mL (≈ 189 µM); with P. aeruginosa 6065Y it was 32 µg/mL (≈ 47.4 µM); with K. pneumoniae β13, 2 µg/mL (≈ 2.96 µM); against E. cloacae β19, 16 µg/mL (≈ 23.7 µM). Also, the MIC90 against P. aeruginosa 40 came to 2 µg/mL (≈ 2.96 µM); in the assay with A. baumannii 52 it was 128 µg/mL (≈ 189 µM); against K. pneumoniae 2011E, 0.25 µg/mL (≈ 0.37 µM); with E. coli AG100 it was 0.125 µg/mL (≈ 0.185 µM); with K. pneumoniae β9, 16 µg/mL (≈ 23.7 µM); in the assay on A. baumannii 49, 128 µg/mL (≈ 189 µM). For the same compound, the MIC90 against E. coli β4 was 0.125 µg/mL (≈ 0.185 µM); with K. pneumoniae β11 it was above 128 µg/mL; with P. aeruginosa 37, 32 µg/mL (≈ 47.4 µM); in the assay with P. aeruginosa 1912E it was 2 µg/mL (≈ 2.96 µM); in the assay on K. pneumoniae β14, 4 µg/mL (≈ 5.92 µM); against P. aeruginosa 43, above 128 µg/mL. This compound gave an MIC90 against K. pneumoniae β10 of 1 µg/mL (≈ 1.48 µM).
Turning to `CC(C)(O/N=C(\C(=O)N[C@@H]1C(=O)N2C(C(=O)[O-])=C(/C=C/C[n+]3cnc(N)c(NC(=O)CCN)c3)CSC12)c1nc(N)sc1Cl)C(=O)O` (stereo partly shown) [Compound 62], the MIC90 was 1 µg/mL (≈ 1.41 µM) in [1]; below 0.0625 µg/mL against M. catarrhalis 2524; 16 µg/mL (≈ 22.6 µM) in the assay on A. baumannii 46; 16 µg/mL (≈ 22.6 µM) in the assay with P. aeruginosa 6065Y; 1 µg/mL (≈ 1.41 µM) against K. pneumoniae β13; 4 µg/mL (≈ 5.64 µM) against E. cloacae β19. Further, the MIC90 with P. aeruginosa 40 was determined as 8 µg/mL (≈ 11.3 µM); against A. baumannii 52 it was 32 µg/mL (≈ 45.1 µM); in the assay with K. pneumoniae 2011E, 1 µg/mL (≈ 1.41 µM); in the assay on E. coli AG100 it was 0.5 µg/mL (≈ 0.705 µM); against K. pneumoniae β9 it was 1 µg/mL (≈ 1.41 µM); in the assay with A. baumannii 49 it was 32 µg/mL (≈ 45.1 µM). Further, the MIC90 stood at 0.5 µg/mL (≈ 0.705 µM) with E. coli β4; 1 µg/mL (≈ 1.41 µM) in the assay with K. pneumoniae β11; 8 µg/mL (≈ 11.3 µM) against P. aeruginosa 37; 4 µg/mL (≈ 5.64 µM) in the assay with P. aeruginosa 1912E; 1 µg/mL (≈ 1.41 µM) in the assay on K. pneumoniae β14; 64 µg/mL (≈ 90.2 µM) with P. aeruginosa 43. Moreover, the MIC90 with K. pneumoniae β10 is 0.5 µg/mL (≈ 0.705 µM).
Consider `CC(C)(O/N=C(\C(=O)N[C@@H]1C(=O)N2C(C(=O)[O-])=C(/C=C/C[n+]3cnc(N)c(NC(=O)CCCN)c3)CSC12)c1csc(N)n1)C(=O)O` (stereo partly shown) [Compound 63], for which the MIC90 in assay [1] is 1 µg/mL (≈ 1.45 µM); against M. catarrhalis 2524, below 0.0625 µg/mL; with A. baumannii 46 it was 8 µg/mL (≈ 11.6 µM); in the assay on P. aeruginosa 6065Y it was 16 µg/mL (≈ 23.2 µM); with K. pneumoniae β13 it was 1 µg/mL (≈ 1.45 µM); against E. cloacae β19 it was 16 µg/mL (≈ 23.2 µM). Also, the MIC90 in the assay on P. aeruginosa 40 was determined as 4 µg/mL (≈ 5.81 µM); against A. baumannii 52 it was 128 µg/mL (≈ 186 µM); against K. pneumoniae 2011E, 0.25 µg/mL (≈ 0.363 µM); with E. coli AG100 it was 0.125 µg/mL (≈ 0.181 µM); against K. pneumoniae β9, 1 µg/mL (≈ 1.45 µM); against A. baumannii 49, 128 µg/mL (≈ 186 µM). The MIC90 in the assay with E. coli β4 is 0.25 µg/mL (≈ 0.363 µM); in the assay with K. pneumoniae β11 it was 32 µg/mL (≈ 46.5 µM); against P. aeruginosa 37, 32 µg/mL (≈ 46.5 µM); in the assay with P. aeruginosa 1912E it was 2 µg/mL (≈ 2.9 µM); in the assay with K. pneumoniae β14, 1 µg/mL (≈ 1.45 µM); in the assay with P. aeruginosa 43 it was 128 µg/mL (≈ 186 µM). Further, the MIC90 against K. pneumoniae β10 amounted to 0.5 µg/mL (≈ 0.726 µM).
`CC(C)(O/N=C(\C(=O)N[C@@H]1C(=O)N2C(C(=O)[O-])=C(/C=C/C[n+]3cnc(N)c(NC(=O)CCCN)c3)CSC12)c1nc(N)sc1Cl)C(=O)O` (stereo partly shown) [Compound 64]: the MIC90 in assay [1] was 1 µg/mL (≈ 1.38 µM); with M. catarrhalis 2524, below 0.0625 µg/mL; in the assay on A. baumannii 46, 16 µg/mL (≈ 22.1 µM); with P. aeruginosa 6065Y, 32 µg/mL (≈ 44.2 µM); against K. pneumoniae β13 it was 2 µg/mL (≈ 2.77 µM); in the assay on E. cloacae β19, 8 µg/mL (≈ 11.1 µM). Moreover, the MIC90 was found to be 8 µg/mL (≈ 11.1 µM) against P. aeruginosa 40; 32 µg/mL (≈ 44.2 µM) in the assay with A. baumannii 52; 2 µg/mL (≈ 2.77 µM) with K. pneumoniae 2011E; 0.5 µg/mL (≈ 0.691 µM) in the assay with E. coli AG100; 2 µg/mL (≈ 2.77 µM) against K. pneumoniae β9; 32 µg/mL (≈ 44.2 µM) with A. baumannii 49. Also, the MIC90 in the assay on E. coli β4 stood at 1 µg/mL (≈ 1.38 µM); against K. pneumoniae β11 it was 8 µg/mL (≈ 11.1 µM); with P. aeruginosa 37, 16 µg/mL (≈ 22.1 µM); in the assay on P. aeruginosa 1912E it was 4 µg/mL (≈ 5.53 µM); in the assay on K. pneumoniae β14, 2 µg/mL (≈ 2.77 µM); in the assay on P. aeruginosa 43, 128 µg/mL (≈ 177 µM). In the assay with K. pneumoniae β10, the MIC90 stood at 1 µg/mL (≈ 1.38 µM).
